# Measurements: US11958835B1, “6-(6-bromo-2-oxo-2H-chromen-3-yl)-4-(4-chlorophenyl)-2-alkoxynicotinonitrile as antimicrobial agents” (KING FAISAL UNIVERSITY, priority 2023, dated 2024)
# Legend:
# Type in all cases: cell-based
# [1] = tested on: Staphylococcus aureus; assay: agar plate disc-diffusion, antibacterial, Staphylococcus aureus; conditions: DMSO control zone subtracted; for inhibition zone, Staphylococcus aureus, A: A = concentration of comp. = 10,000 μL; for inhibition zone, Staphylococcus aureus, B: B = concentration of comp. = 30.000 μL; for inhibition zone, Staphylococcus aureus, C: C = concentration of comp. = 50,000 μL
# Description: (§1) The agar plate disc-diffusion method was applied. Sterilized filter papers (6 mm in diameter) were wetted with 10 μL of a solution of 6-(6-bromo-2-oxo-2H-chromen-3-yl)-4-(4-chlorophenyl)-2-ethoxynicotinonitrile (1) and 6-(6-bromo-2-oxo-2H-chromen-3-yl)-4-(4-chlorophenyl)-2-methoxynicotinonitrile (2) to be tested, containing […], and the discs were allowed to air dry. The discs were then placed onto the surface of agar plates (nutrient agar for bacteria and Sabouraud's dextrose agar for fungi) seeded with the test organism. Each plate contained 15 mL of the agar medium, previously seeded with 0.2 mL of the broth culture of each organism pregrown for 18 hours. The plates were incubated at 37° C. for 48 hours, and 72 hours for fungi. The inhibition zones were measured in millimeters. Discs impregnated with DMSO were used as a control, and its inhibition zone was subtracted from the tested compound actual inhibition zone.
# (§2) Their antibacterial screened against gram positive bacteria namely Bacillus cereus and Staphylococcus aureus and gram-negative bacterial strains namely Pseudomonas aeruginosa and Escherichia coli, while their antifungal activity screened against Aspergillus flavus and Chrysosporium keratinophilum as shown in Tables 1 and 2 using ciprofloxacin as a reference.
# [2] = tested on: Escherichia coli; assay: agar plate disc-diffusion, antibacterial, Escherichia coli; conditions: DMSO control zone subtracted; for inhibition zone, Escherichia coli, A: A = concentration of comp. = 10,000 μL; for inhibition zone, Escherichia coli, B: B = concentration of comp. = 30.000 μL; for inhibition zone, Escherichia coli, C: C = concentration of comp. = 50,000 μL
# Description: as §1, §2
# [3] = tested on: Chrysosporium keratinophilum; assay: agar plate disc-diffusion, antifungal, Chrysosporium keratinophilum; conditions: DMSO control zone subtracted; for inhibition zone, Chrysosporiam keratinophilum, A: A = concentration of comp. = 10,000 μL; for inhibition zone, Chrysosporiam keratinophilum, B: B = concentration of comp. = 30.000 μL; for inhibition zone, Chrysosporiam keratinophilum, C: C = concentration of comp. = 50,000 μL
# Description: as §1, §2
# [4] = tested on: Pseudomonas aeruginosa; assay: agar plate disc-diffusion, antibacterial, Pseudomonas aeruginosa; conditions: DMSO control zone subtracted; for inhibition zone, Pseudomonas aeruginosa, A: A = concentration of comp. = 10,000 μL; for inhibition zone, Pseudomonas aeruginosa, B: B = concentration of comp. = 30.000 μL; for inhibition zone, Pseudomonas aeruginosa, C: C = concentration of comp. = 50,000 μL
# Description: as §1, §2
# [5] = tested on: Bacillus cereus; assay: agar plate disc-diffusion, antibacterial, Bacillus cereus; conditions: DMSO control zone subtracted; for inhibition zone, Bacillus Cereus, A: A = concentration of comp. = 10,000 μL; for inhibition zone, Bacillus Cereus, B: B = concentration of comp. = 30.000 μL; for inhibition zone, Bacillus Cereus, C: C = concentration of comp. = 50,000 μL
# Description: as §1, §2
# [6] = tested on: Aspergillus flavus; assay: agar plate disc-diffusion, antifungal, Aspergillus flavus; conditions: DMSO control zone subtracted; for inhibition zone, Aspergillus flavus, A: A = concentration of comp. = 10,000 μL; for inhibition zone, Aspergillus flavus, B: B = concentration of comp. = 30.000 μL; for inhibition zone, Aspergillus flavus, C: C = concentration of comp. = 50,000 μL
# Description: as §1, §2
Structure (SMILES),"inhibition zone, Staphylococcus aureus, A [1]","inhibition zone, Staphylococcus aureus, B [1]","inhibition zone, Staphylococcus aureus, C [1]","inhibition zone, Escherichia coli, A [2]","inhibition zone, Escherichia coli, B [2]","inhibition zone, Escherichia coli, C [2]","inhibition zone, Chrysosporiam keratinophilum, A [3]","inhibition zone, Chrysosporiam keratinophilum, B [3]","inhibition zone, Chrysosporiam keratinophilum, C [3]","inhibition zone, Pseudomonas aeruginosa, A [4]","inhibition zone, Pseudomonas aeruginosa, B [4]","inhibition zone, Pseudomonas aeruginosa, C [4]","inhibition zone, Bacillus Cereus, A [5]","inhibition zone, Bacillus Cereus, B [5]","inhibition zone, Bacillus Cereus, C [5]","inhibition zone, Aspergillus flavus, A [6]","inhibition zone, Aspergillus flavus, B [6]","inhibition zone, Aspergillus flavus, C [6]"
"COc1nc(-c2cc3cc(Br)ccc3oc2=O)cc(-c2ccc(Cl)cc2)c1C#N [Compound 2, 6-(6-bromo-2-oxo-2H-chromen-3-yl)-4-(4-chlorophenyl)-2-methoxynicotinonitrile]",17 millimeters,23 millimeters,29 millimeters,27 millimeters,34 millimeters,48 millimeters,25 millimeters,29 millimeters,40 millimeters,25 millimeters,31 millimeters,35 millimeters,25 millimeters,27 millimeters,35 millimeters,19 millimeters,23 millimeters,33 millimeters
"CCOc1nc(-c2cc3cc(Br)ccc3oc2=O)cc(-c2ccc(Cl)cc2)c1C#N [Compound 1, 6-(6-bromo-2-oxo-2H-chromen-3-yl)-4-(4-chlorophenyl)-2-ethoxynicotinonitrile]",18 millimeters,22 millimeters,27 millimeters,27 millimeters,37 millimeters,45 millimeters,24 millimeters,27 millimeters,39 millimeters,21 millimeters,26 millimeters,37 millimeters,15 millimeters,20 millimeters,29 millimeters,20 millimeters,25 millimeters,34 millimeters
"O=C(O)c1cn(C2CC2)c2cc(N3CCNCC3)c(F)cc2c1=O [Cip., ciprofloxacin, reference compound]",43 millimeters,44 millimeters,53 millimeters,30 millimeters,39 millimeters,60 millimeters,29 millimeters,30 millimeters,53 millimeters,29 millimeters,30 millimeters,53 millimeters,29 millimeters,30 millimeters,42 millimeters,29 millimeters,30 millimeters,42 millimeters
